The numbers were not newly measured in US11134689B2, “Natural volatile plant oils to repel arthropods” (Shepard Farms, LLC, priority 2011, dated 2021), which cites them from elsewhere.

This series relates to fruit fly (Ceratitis capitata). Particulars: in vivo.

Each structure is given as a SMILES string.

As for `CC12CCC(CC1)C(C)(C)O2` [1,8-cineole], the insecticidal activity result was “high insecticidal activity”.
